Here are results for two compounds from patent publication US20200236969A1, “METHODS AND COMPOSITIONS FOR IMPROVING GROWTH AND PERFORMANCE” (priority 2017, published 2020).

Assay [1] has as its system turkey poults. The experiment in a line: Pen trial of probiotic blends alone and with prebiotics: body weight, uniformity, feed conversion. The class given is in vivo. On the procedure:
Pen trial experiments were performed using the 4-strain probiotic blend and 10-strain (3 week) probiotic blend described in Example 2. The effect of each combination was assessed alone and in combination with one of two prebiotics, Lactose 1% in feed or 0.5 lbs SAFMANNAN per ton of feed (Phileo Lesaffre Animal Care, Marcq-En-Baroeul Cedex, France). The prebiotic was administered continuously in feed.
This Experiment started in December 2017 and lasted 15 weeks. Poults were housed in pens through 6 weeks of age then moved to a common area. They remained on experimental feed through 6 weeks; then were all given control feed. Probiotic inoculations were performed at day of hatch and 3 weeks of age.

The test system of assay [2] is day-of-hatch turkeys. The experiment in a line: Second caged trial: 4-strain combination vs FM-B11 and BMD, body weight. The class given is in vivo, turkey. From the text: FIG. 5A and FIG. 5B show average body weights in grams (y-axis) for day-of-hatch turkeys treated with a 4-strain probiotic blend inoculation group, day-of-hatch turkeys treated with an existing commercial probiotic derived from chickens (FM-B11), and day-of-hatch turkeys treated with a low-dose antibiotic (bacitracin methylene disalicylate or BMD), as described in Example 2, compared to day-of-hatch turkeys treated with a saline negative control. FIG. 5A. Turkeys were weighed on day 0 (that is, day-of-hatch), day 3, day 6, and day 13. Error bars depict standard error of means. […] For each treatment group, eight replicate cages were used with 10 birds per cage (n=80 per treatment group).
A second trial was performed to repeat the 4-strain combination inoculation and compare it again with a negative saline control, an existing commercial probiotic derived from chickens (FM-B11), and a low-dose antibiotic (bacitracin methylene disalicylate or BMD) administered continuously at 50 g/ton in the feed. […] Results are shown in FIG. 5 and Table 5 and indicate that there is repeatability in the ability of this 4-strain combination to enhance turkey performance related to weight gain.

Regarding `OC[C@H]1O[C@@H](O[C@H]2[C@H](O)[C@@H](O)C(O)O[C@@H]2CO)[C@H](O)[C@@H](O)[C@H]1O` (stereo partly shown) [Lactose 1%, Lactose], the “Feed conversion ratio 0-2 weeks” value in assay [1] (0-2 weeks of age) was 1.40. Further, the “Feed conversion ratio 0-6 weeks” value in assay [1] (0-6 weeks of age) came out at 1.71. Further, the “Total body weight average Day 0” value in assay [1] (Day 0 (baseline), pen trial) was 65.0 grams. For the same compound, the “Total body weight average Week 1” value in assay [1] (Week 1, pen trial, probiotic at day of hatch and 3 weeks, prebiotic continuously in feed) stood at 169.9 grams. For the same compound, the “Total body weight average Week 2” value in assay [1] (Week 2, pen trial) was found to be 350.7 grams. Further, the “Total body weight average Week 3” value in assay [1] (Week 3, pen trial) is recorded as 704.0 grams. Also, the “Coefficient of variation as a measure of bird uniformity Week 3” value in assay [1] (Week 3 of age) is recorded as 10.304. Further, the “Total body weight average Week 6” value in assay [1] (Week 6, pen trial) is 2471.0 grams. Further, the “Coefficient of variation as a measure of bird uniformity Week 6” value in assay [1] (Week 6 of age) was 9.3181.

Consider “bacitracin methylene disalicylate [BMD Antibiotic]”, for which the “Average body weight Day 3” value in assay [2] (day 3) came to 76.8 g. The “Average body weight Day 6” value in assay [2] (day 6) was 125.5 g. Besides, the “Average body weight Day 13” value in assay [2] (day 13) was 314.3 g. The “Average body weight Day 0” value in assay [2] (day-of-hatch (baseline)) is reported as 60.1 g.
